Structures can show the parent of a compound that is named as a salt.
Assays:
[1] = Membrane permeability in Caco-2 monolayers; conditions: human; for recovery at 90 min, 250 μM / recovery at 90 min: Caco-2, Recovery [%] mean ± s.d.
Method: (§1) The membrane permeability was investigated in Caco-2 monolayers. DMF was investigated in a separate experiment for comparison.
(§2) […] The test concentration in the apical medium was 250 μM. […] Furthermore, a significant metabolism or degradation of the test compound was expected and therefore the parent compound as well as MMF was determined in the acceptor compartment (basolateral medium). Sampling time points were 15, 45 and 90 min.

Caco-2 monolayers = assay: Membrane permeability in Caco-2 monolayers; conditions: for permeability category compared to the reference molecules: Caco-2
Method: as §1, §2

[2] = In vivo pharmacokinetics of MMF after p.o. administration; design: species or system female NMRI mice; conditions: female, NMRI, mouse, po, 49.4 mg/kg
Method: The pharmacokinetics of MMF after administration of Example 7 and DMF for comparison was investigated in female NMRI mice (3 animals per group). The test compound was dissolved in DMSO/PEG300 (20/80) and administered p.o. (gavage) at a dose volume of 10 ml/kg. DMF was given at a dose of 45 mg/kg. The test compound was dosed at a MMF-equivalent dose, i.e. 49.4 mg/kg. Blood samples were taken at 0.25, 0.5, 1.0, 2.0, 4.0, 6.0 and 8.0 h after drug administration.
Pharmacokinetic parameters, derived by non-compartmental analysis for test compound

[3] = tested on: MOG35-55-induced experimental autoimmune encephalomyelitis (EAE); assay: MOG35-55-induced experimental autoimmune encephalomyelitis (EAE) in the mouse; assay type: in vivo, male C57BL/6 mice; conditions: prophylactic treatment from day 1; observations day 1 to 13; dose formulation 11.54 mM, 10 ml/kg
Method: The pharmacological efficacy was investigated in experimental autoimmune encephalomyelitis (EAE) in the mouse.
The experiments were performed as follows: male C57BL/6 mice, 12 weeks old, 10 animals per treatment group, were used. On day 1, animals were immunized by sub-cutaneous injection of MOG35-55, which was mixed in complete Freund's adjuvants. On the same day as well as on day 3 the animals received a sub-cutaneous injection of Pertussis-toxin.
Assessment and comparison of the efficacy of compounds of the invention and DMF (reference) in MOG35-55-induced experimental autoimmune encephalomyelitis (EAE) in C57BL/6 mice. • Test system: male C57BL/6 mice, 12 weeks old; 10 animals per treatment group; • Induction of EAE: Day 1—subcutaneous injection of MOG35-55, suspended in complete Freund's adjuvants and intraperitoneal injection of pertussis toxin. • Day 3—intraperitoneal injection of pertussis toxin. • Treatment: Dimethylfumarate and test substances or vehicle only were administered via oral and intravenous route. For oral administration, test substances were dissolved or suspended in 0.5% hydroxyethylcellulose (dissolved in 50 mM potassium dihydrogenphosphate, pH 5.0). […]

[4] = Caco-2, Papp × 10^−6 [cm/sec] mean ± s.d.

Q: What does the source list for `C[C@]12CC[C@H]3[C@@H](CCC4=CC(=O)CC[C@@]43C)[C@@H]1CC[C@@H]2O` [Testosterone, testosterone]?
A: recovery at 90 min, 250 μM ([1]; direction a-b): 67.3 ± 1.2%; recovery at 90 min ([1]; direction b-a): 94.9 ± 0.9%; Recovery [%] mean ± s.d. (Caco-2 monolayers; direction a-b): 62.5 ± 2.1%; Recovery [%] mean ± s.d. (Caco-2 monolayers; direction b-a): 76.1 ± 4.5%

Q: For `COC(=O)/C=C/C(=O)OCC(O)COC(=O)/C=C/C(=O)OC` [Example 7, (E)-But-2-enedioic acid 2-hydroxy-3-((E)-3-methoxycarbonyl-acryloyloxy)-propyl ester methyl ester], which Papp A→B at 90 min, 250 μM [1, 4] is on record?
A: 2.5 ± 0.2 ×10⁻⁶ cm/s

Q: And the recovery at 90 min, 250 μM [1]?
A: 18.3%

Q: And the “permeability category compared to the reference molecules” value (Caco-2 monolayers)?
A: moderate permeability

Q: What about the “Tmax of MMF” value [2] of the same molecule?
A: 15 min

Q: Which efflux ratio at 90 min ([1]; Caco-2, Efflux ratio (b-a/a-b)) does the source give for `CC[C@H]1OC(=O)[C@H](C)[C@@H](O[C@H]2C[C@@](C)(OC)[C@@H](O)[C@H](C)O2)[C@H](C)[C@@H](O[C@@H]2O[C@H](C)C[C@H](N(C)C)[C@H]2O)[C@](C)(O)C[C@@H](C)C(=O)[C@H](C)[C@@H](O)[C@]1(C)O` [Erythromycin, erythromycin] here?
A: 55.9

Q: And the Papp A→B at 90 min, 250 μM [1, 4]?
A: 0.2 ± 0.02 ×10⁻⁶ cm/s

Q: What about the Papp B→A at 90 min [1, 4] of the same molecule?
A: 12.3 ± 0.4 ×10⁻⁶ cm/s

Q: What about the recovery at 90 min [1] of the same molecule?
A: 99.9 ± 2.4%

Q: And the recovery at 90 min, 250 μM [1]?
A: 108 ± 2.2%

Q: What about the “Efflux ratio (b-a/a-b)” value (Caco-2 monolayers; human, Caco-2, 90 min) of the same molecule?
A: 100.8

Q: What about the “Papp × 10^−6 [cm/sec] mean ± s.d.” value (Caco-2 monolayers; human, Caco-2, 90 min) of the same molecule?
A: 11.5 ± 0.5 10^−6 cm/sec

Q: What about the “Recovery [%] mean ± s.d.” value (Caco-2 monolayers; human, Caco-2, 90 min) of the same molecule?
A: 89.1 ± 8.5%

Q: What about the “Papp × 10^−6 [cm/sec] mean ± s.d.” value (Caco-2 monolayers; human, Caco-2, 90 min, 250 μM) of the same molecule?
A: 0.1 ± 0.2 10^−6 cm/sec

Q: And the “Recovery [%] mean ± s.d.” value (Caco-2 monolayers; human, Caco-2, 90 min, 250 μM)?
A: 91.0 ± 1.9%

Q: For `COC(=O)/C=C/C(=O)OC` [DMF, Dimethyl fumarate], which Papp A→B at 90 min, 250 μM [1, 4] is on record?
A: 1.8 ± 0.2 ×10⁻⁶ cm/s

Q: And the recovery at 90 min, 250 μM [1]?
A: 11.6%

Q: And the “permeability category compared to the reference molecules” value (Caco-2 monolayers)?
A: moderate permeability

Q: What about the body weight [3] of the same molecule?
A: remained stable

Q: And the “clinical symptoms (clinical score, grade 0-10)” value [3]?
A: protected from the development of clinical symptoms

— patent US9796659B2, “Derivatives of polyhydroxy compounds” (RATIOPHARM GMBH, priority 2014, dated 2017)
